Test system: primary adult human dermal fibroblasts (HDFs)
Assay: High-throughput compound screen for senolytic activity (cell viability by Hoechst 33342 / SYTOX Green imaging) in early proliferating (EP) and deeply senescent (DS) fibroblasts
Assay type: cell-based
Set-up: key to hit classification based on EP and DS cell viability: senolytic: EP cell viability above the 89% EP threshold and DS cell viability below the 87% DS threshold for at least one concentration of the three serial concentrations; prolifolytic: decreased EP cell viability below the 89% EP threshold but did not decrease DS cell viability below 87%; cytotoxic: decreased both EP and DS cell viability below their respective thresholds; non-toxic: maintained both EP and DS viability above their respective thresholds
Source text: A high-throughput compound screen of 1240 test compounds including inter alia monostearin (IUPAC: 1,3-dihydroxypropan-2-yl octadecanoate 2,3-dihydroxypropyl octadecanoate) was optimised in primary adult human dermal fibroblasts (HDFs). For this, a model of replicative senescence in HDFs was established. In brief, early proliferating (EP) fibroblasts at passage 11 were serially passaged until they reached replicative senescence at passage 29.
Actinomycin D, a drug widely reported to induce apoptosis in multiple cell types, was optimised for use as a positive 'senolytic control' for the high-throughput compound screen in EP (0.02µM) and DS (0.2µM) HDFs.
In order to perform the high-throughput screen of the test compounds a thorough validation process of the assay was undertaken prior to experimental screening. For both EP and DS HDFs, the following steps were optimised: optimisation of cell seeding densities in 384-well plate format; validation and optimisation of Actinomycin D positive and DMSO-vehicle negative controls; optimisation of high-throughput image acquisition and high content analysis of Hoechst 33342 (ThermoFisher, UK) in combination with SYTOX Green (ThermoFisher, UK) using the INCell 2200 microscope (GE, UK) for cell death phenotypic read-outs; optimisation of liquid handling system protocols; plate uniformity assessments; and a "dry run" of all components in the assay. […]

## CCCCCCCCCCCCCCCCCC(=O)OCC(O)CO (centres unmarked) [monostearin, 1,3-dihydroxypropan-2-yl octadecanoate 2,3-dihydroxypropyl octadecanoate]
DS versus EP HDFs, conclusion drawn from the screen
  cytotoxicity for senescent cells, compared to growing cells: preferential cytotoxicity for senescent cells
EP and DS HDFs, three serial concentrations, 48 hours incubation, read-out five days post-compound addition, class met for at least one concentration
  hit classification based on EP and DS cell viability: senolytic

Source: patent publication EP4308247B1, “USE OF MONO[…] TREATING SIGNS OF SKIN AGING” (Unilever IP Holdings B.V., priority 2021, dated 2022)
